Test results taken from ChEMBL document CHEMBL1201862, “PubChem BioAssay data set” (2004).
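Dose response: 5 concentrations. Exposure: 48 h. Format: 96-well plates. Endpoint: linear interpolation; highest concentration if not reached. Abbreviation: GI50, concentration required for 50% inhibition of growth.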 Calls of active or inactive are those of the source. Rule as the data show it: active = GI50 up to about 1.1 µM and inactive = higher.

What was measured:
Test in all cases: NCI anticancer screen, dose series, 48 h
[1] = system: SK-OV-3
[2] = system: OVCAR-5
[3] = system: SW-620
[4] = system: MDA-N
[5] = system: CCRF-CEM
[6] = system: NCI-H522
[7] = system: SK-MEL-5
[8] = system: HCT-15
[9] = system: SF-295
[10] = system: K562
[11] = system: NCI-H460
[12] = system: M14
[13] = system: HOP-62
[14] = system: RXF 393
[15] = system: NCI-H23
[16] = system: HT-29
[17] = system: NCI/ADR-RES
[18] = system: SF-539
[19] = system: RPMI-8226
[20] = system: HOP-92

SMILES	GI50 [1]	GI50 [2]	GI50 [3]	GI50 [4]	GI50 [5]	GI50 [6]	GI50 [7]	GI50 [8] [µM]	GI50 [9]	GI50 [10]	GI50 [11]	GI50 [12]	GI50 [13]	GI50 [14]	GI50 [15]	GI50 [16]	GI50 [17]	GI50 [18]	GI50 [19]	GI50 [20]
O=CNc1ncn[nH]1	> 100 µM (inactive)	> 100 µM (inactive)	> 100 µM (inactive)	> 100 µM (inactive)	> 100 µM (inactive)	> 100 µM (inactive)	> 100 µM (inactive)	> 100	> 100 µM (inactive)	> 100 µM (inactive)	> 100 µM (inactive)	> 100 µM (inactive)	> 100 µM (inactive)	> 100 µM (inactive)	> 100 µM (inactive)	> 100 µM (inactive)	> 100 µM (inactive)	> 100 µM (inactive)	> 100 µM (inactive)	
C=C1CCC2[C@](C)(CCC[C@]2(C)C(=O)O)[C@@H]1CCc1ccoc1 (stereo partly specified)	> 100 µM (inactive)	90.6 µM (inactive)	53.7 µM (inactive)	61.8 µM (inactive)	40.7 µM (inactive)	68.5 µM (inactive)	36.6 µM (inactive)	26.8	47.5 µM (inactive)	53.5 µM (inactive)	33.9 µM (inactive)	41.1 µM (inactive)	40.6 µM (inactive)	36.2 µM (inactive)	21.4 µM (inactive)	24.2 µM (inactive)	38.5 µM (inactive)	37 µM (inactive)	44.7 µM (inactive)	
COC(=O)C(C)(C)NC(=O)C(Cc1ccccc1)Nc1ncnc2c1ncn2-c1ccc(OC)cc1 (stereo unspecified)	46.8 µM (inactive)	42.2 µM (inactive)	19.9 µM (inactive)	20.3 µM (inactive)	13.5 µM (inactive)	13.1 µM (inactive)	24.8 µM (inactive)	34.8	73.1 µM (inactive)	> 100 µM (inactive)	22.9 µM (inactive)	42.7 µM (inactive)	35.2 µM (inactive)		56.8 µM (inactive)	19.9 µM (inactive)	31.3 µM (inactive)		72.9 µM (inactive)	22.8 µM (inactive)
O=C(CN1CCN(Cc2ccccc2)CC1)N1CCCn2c1nc1ccccc1c2=O	> 100 µM (inactive)	> 100 µM (inactive)	> 100 µM (inactive)	> 100 µM (inactive)	> 100 µM (inactive)	> 100 µM (inactive)	> 100 µM (inactive)	> 100	> 100 µM (inactive)	> 100 µM (inactive)	> 100 µM (inactive)	> 100 µM (inactive)	> 100 µM (inactive)		> 100 µM (inactive)	> 100 µM (inactive)	> 100 µM (inactive)	> 100 µM (inactive)	> 100 µM (inactive)	4.58 µM (inactive)
CC(C)=C1C(=O)c2c(Cl)sc(Cl)c2C1=O	> 100 µM (inactive)	> 100 µM (inactive)	28.7 µM (inactive)	22.6 µM (inactive)	26.1 µM (inactive)	16.4 µM (inactive)	93.3 µM (inactive)	20.7	39.5 µM (inactive)	37.6 µM (inactive)	> 100 µM (inactive)	19 µM (inactive)	42.4 µM (inactive)		17.8 µM (inactive)	28.8 µM (inactive)	24 µM (inactive)	22.3 µM (inactive)		22.6 µM (inactive)
C=C[C@@H]1C[C@]2(C(=O)OC)Cc3nc4ccccc4nc3CC(C(=O)OC)=C2O1	> 100 µM (inactive)	> 100 µM (inactive)	58.5 µM (inactive)	46.8 µM (inactive)	41.8 µM (inactive)	64.6 µM (inactive)	78.9 µM (inactive)	57.1	93.5 µM (inactive)		> 100 µM (inactive)	80.7 µM (inactive)	> 100 µM (inactive)	> 100 µM (inactive)	69.8 µM (inactive)	> 100 µM (inactive)	> 100 µM (inactive)	> 100 µM (inactive)	34 µM (inactive)	
